Results on 19 molecules are retold here after patent US20190275012A9, “SUBSTITUTED THIAZOLO-PYRIDINE COMPOUNDS AS MALT1 INHIBITORS” (Lupin Limited, priority 2016, published 2019).

For one test, the target named is T1, full length MALT1 enzyme (Homo sapiens, UniProt Q9UDY8).
T1 construct: a fluorescence based assay with full length MALT1 enzyme
T1 sequence (Q9UDY8 1-824): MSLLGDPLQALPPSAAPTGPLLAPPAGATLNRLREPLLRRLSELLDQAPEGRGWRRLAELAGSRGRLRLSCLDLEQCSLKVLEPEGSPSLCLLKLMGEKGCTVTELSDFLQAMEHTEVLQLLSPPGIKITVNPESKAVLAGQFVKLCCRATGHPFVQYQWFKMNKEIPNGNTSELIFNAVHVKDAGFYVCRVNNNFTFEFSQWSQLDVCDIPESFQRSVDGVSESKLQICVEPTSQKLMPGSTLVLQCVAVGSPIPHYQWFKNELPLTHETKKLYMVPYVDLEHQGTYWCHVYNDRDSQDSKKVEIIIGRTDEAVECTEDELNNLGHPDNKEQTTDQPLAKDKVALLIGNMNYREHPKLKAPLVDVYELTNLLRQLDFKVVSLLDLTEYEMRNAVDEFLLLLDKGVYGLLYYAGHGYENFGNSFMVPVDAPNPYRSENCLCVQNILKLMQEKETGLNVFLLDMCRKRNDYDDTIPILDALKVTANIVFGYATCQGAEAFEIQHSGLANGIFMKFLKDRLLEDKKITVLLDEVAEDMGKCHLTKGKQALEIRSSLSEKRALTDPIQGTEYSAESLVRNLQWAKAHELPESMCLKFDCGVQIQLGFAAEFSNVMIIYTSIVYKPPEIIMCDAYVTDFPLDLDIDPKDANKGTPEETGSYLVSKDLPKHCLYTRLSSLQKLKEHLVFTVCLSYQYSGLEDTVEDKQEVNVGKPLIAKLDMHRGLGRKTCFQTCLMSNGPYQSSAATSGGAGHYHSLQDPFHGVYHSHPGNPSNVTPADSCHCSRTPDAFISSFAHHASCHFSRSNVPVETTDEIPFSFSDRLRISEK
Kind of test: MALT1 biochemical assay (fluorescence based, Ac-Leu-Arg-Ser-Arg-AMC cleavage). Conditions: full length MALT1 protein, 2 h pre-incubation at RT, tetrapeptide substrate Ac-Leu-Arg-Ser-Arg-AMC, read-out: Malt 1 inhibition IC50. On the procedure:
The biochemical potency of the MALT1 inhibitors was tested by using a fluorescence based assay with full length MALT1 enzyme. The assay principle makes use of the preferential cleavage by MALT1 after the Arginine residue. Thus, the substrate used is a tetrapeptide (Ac-Leu-Arg-Ser-Arg-AMC; Catalogue # SMAMC013, SM Biochemicals) which is cleaved by active MALT1 releasing the AMC which is fluorescent. Upon addition of the MALT1 protease inhibitors, the proteolytic activity (and accordingly AMC fluorescence) is reduced in a dose dependent manner. The kinetic characterization of the enzymatic reaction was measured by determining the Michaelis constant, Km, of the reaction (approximately 130=A/I). The assay buffer consisted of 50 mM MES, 150 mM NaCl, 0.1% w/v CHAPS, 1 M Ammonium citrate and 10 mM DTT (pH=7). The assay was established for the 384-well plate format using black microtiter square well plates (Optiplate 384-F, Perkin Elmer). The test compounds were dissolved in 100% DMSO at a stock concentration of 10 mM. Serial dilutions were made first in 100% DMSO. The final concentration of DMSO was 0.5% by wt.
For determining the extent of inhibition of MALT1 protease activity by MALT1 inhibitors, 10⇒| of the test compound solutions were pre-incubated with 10⇒| of MALT1 full length protein (100-300 ng protein/well) for 2 h at RT. This was followed by 10⇒| of substrate addition at a final concentration of 100⇒M for an additional 4-12 h. The increase in assay signal was linear over this period of time and proportional with increase in the enzyme content. The final concentrations of the test compounds typically ranged from 10000 nM to 0.03 nM in an alternate 3.16 and 3 serial dilutions. The positive control for the reaction contained enzyme and DMSO (without any test compound) and was considered to have 100% enzyme activity (0% inhibition) and the negative control containing only buffer and DMSO (without any enzyme) was considered to have no enzymatic activity (100% inhibition). The fluorescence was recorded in a Spectra Max plate reader, Molecular Devices, with a fluorescence excitation at 360 nm and emission recording at 460 nm. The fluorescence units were transformed to percentage inhibitions by using the positive and negative controls as references as per the following formula.
[formula] Positive control=Reaction containing enzyme+substrate+DMSO
Negative control=Reaction containing substrate+DMSO but no enzyme
The IC50 values of individual compounds were calculated with Non Linear Regression Analysis using Graph Pad Prism (Graph Pad software, Inc, USA).

Test [1] deals with NF-kB transcriptional activity in HEK-293-NF-kB-Luc cell line overexpressing MALT1. Nature of the test: NF-kB reporter assay (luciferase, MALT1 stably overexpressed). The note with it: Homo sapiens, 24 h, HEK-293-NF-kB-Luc cells stably overexpressing MALT1, 24 h treatment, Bright Glo luminescence; read-out: NF-kB inhibition IC50. The class given is cell-based. A digest of the protocol:
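HEK-293-NF-κB-Luc cells stably overexpressing MALT1 were seeded overnight, then exposed to test compounds for 24 h. Bright Glo added 10 min at ambient temperature and luminescence read; % inhibition calculated against 0.1% DMSO controls.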
Background: A reporter such as luciferase makes a cellular process visible.

Usually IC50 stands for the concentration that inhibits the measured activity by half. `COC(=O)c1cc(Cl)cc(NC(=O)Nc2cnc3sc(C)nc3c2C(C)OC)c1` (single isomer, unassigned) [Compound 152b, Methyl 3-chloro-5-(3-(7-(1-methoxyethyl)-2-methylthiazolo[5,4-b]pyridin-6-yl)ureido)benzoate]: the IC50 on full length MALT1 enzyme lay in the range of 1 to 50 nM; in test [1], 1 to 100 nM.
In the same order, the values of `COc1nc(-n2nccn2)c(C(F)(F)F)cc1NC(=O)Nc1cnc2sc(C)nc2c1C(C)OC` (single isomer, unassigned) [Compound 88b, 1-(2-Methoxy-6-(2H-1,2,3-triazol-2-yl)-5-(trifluoromethyl)pyridin-3-yl)-3-(7-(1-methoxyethyl)-2-methylthiazolo[5,4-b]pyridin-6-yl)urea] are 1 to 50 nM and 1 to 100 nM.
In the case of `Cc1nc2c(C3CC3)c(NC(=O)Nc3ccc(-n4ccnn4)c(Cl)c3)cnc2s1` [Compound 169, 1-(3-Chloro-4-(1H-1,2,3-triazol-1-yl)phenyl)-3-(7-cyclopropyl-2-methylthiazolo[5,4-b]pyridin-6-yl)urea], the half-maximal inhibitory concentration (IC50) on full length MALT1 enzyme was 1 to 50 nM; in test [1], 101 to 500 nM.
In the same order, the values of `Cc1nc2c(C3CC3)c(NC(=O)Nc3cncc(C(F)(F)F)c3)cnc2s1` [Compound 7, 1-(7-Cyclopropyl-2-methylthiazolo[5,4-b]pyridin-6-yl)-3-(5-(trifluoromethyl)pyridin-3-yl)urea] are 101 to 500 nM and 101 to 500 nM.
`Cc1nc2c(C3(C)CC3)c(NC(=O)Nc3ccc(-n4nccn4)c(Cl)c3)cnc2s1` [Compound 179, 1-(3-Chloro-4-(2H-1,2,3-triazol-2-yl)phenyl)-3-(2-methyl-7-(1-methylcyclopropyl)thiazolo[5,4-b]pyridin-6-yl)urea]: the IC50 at full length MALT1 enzyme lay in the range of 1 to 50 nM; in test [1], 1 to 100 nM.
In the same order, the values of `COC(c1c(NC(=O)Nc2cnc(-n3nccn3)c(C(F)(F)F)c2)cnc2sc(C)nc12)C(C)C` (single isomer, unassigned) [Compound 78b, 1-(6-(2H-1,2,3-Triazol-2-yl)-5-(trifluoromethyl)pyridin-3-yl)-3-(7-(1-methexyl-methylpropyl)-2-methylthiazolo[5,4-b]pyridin-6-yl)urea] are 1 to 50 nM and 1 to 100 nM.
On to `Cc1nc2c(C3CC3)c(NC(=O)Nc3cnc(N4CCCS4(=O)=O)c(C(F)(F)F)c3)cnc2s1` [Compound 23, 1-(7-Cyclopropyl-2-methylthiazolo[5,4-b]pyridin-6-yl)-3-(6-(1,1-dioxidoisothiazolidin-2-yl)-5-(trifluoromethyl)pyridin-3-yl)urea], for which the 50% inhibitory concentration (IC50) on full length MALT1 enzyme lay within 51 to 100 nM; in test [1], 101 to 500 nM.
Regarding `Cc1ncn(-c2ccc(NC(=O)Nc3cnc4sc(C)nc4c3C3CC3)cc2C#N)n1` [Compound 171, 1-(3-Cyano-4-(3-methyl-1H-1,2,4-triazol-1-yl)phenyl)-3-(7-eyelopropyl-2-methylthiazolo[5,4-b]pyridin-6-yl)urea], the 50% inhibitory concentration (IC50) fell in the range of 51 to 100 nM at full length MALT1 enzyme and 101 to 500 nM in test [1].
The like results for `Cc1nc2c(N3CCC(C)CC3)c(NC(=O)Nc3cnc(-n4nccn4)c(Cl)c3)cnc2s1` [Compound 37, 1-(5-Chloro-6-(2H-1,2,3-triazol-2-yl)pyridin-3-yl)-3-(2-methyl-7-(4-methylpiperidin-1-yl)thiazolo[5,4-b]pyridin-6-yl)urea] were, in that order, 51 to 100 nM and 101 to 500 nM.
For `CCc1nc2c(C3CC3)c(NC(=O)Nc3cnc(-n4nccn4)c(Cl)c3)cnc2s1` [Compound 31, 1-(5-Chloro-6-(2H-1,2,3-triazol-2-yl)pyridin-3-yl)-3-(7-cyclopropyl-2-ethylthiazolo[5,4-b]pyridin-6-yl)urea], the values for the IC50 (on full length MALT1 enzyme; in test [1]) were 1 to 50 nM and 101 to 500 nM, respectively.
In the case of `Cc1nc2c(C3CC3)c(NC(=O)Nc3cc(Cl)c(-n4ccnn4)c(Cl)c3)cnc2s1` [Compound 170, 1-(7-Cyclopropyl-2-methylthiazolo[5,4-b]pyridin-6-yl)-3-(3,5-dichloro-4-(1H-1,2,3-triazol-1-yl)phenyl)urea], the 50% inhibitory concentration (IC50) at full length MALT1 enzyme was in the range of 1 to 50 nM; in test [1], 101 to 500 nM.
`Cc1nc2c(C(C)C)c(NC(=O)Nc3cnc(-n4nccn4)c(C(F)(F)F)c3)cnc2s1` [Compound 191, 1-(6-(2H-1,2,3-triazol-2-yl)-5-(trifluoromethyl)pyridin-3-yl)-3-(7-isopropyl-2-methylthiazolo[5,4-b]pyridin-6-yl)urea]: the results for the IC50 (at full length MALT1 enzyme; in test [1]) were 1 to 50 nM and 1 to 100 nM, respectively.
The like results for `COc1nc(-n2nccn2)c(C(F)(F)F)cc1NC(=O)Nc1cnc2sc(C)nc2c1C(OC)C1CC1` (single isomer, unassigned) [Compound 155a, 1-(7-(Cyclopropyl(methoxy)methyl)-2-methylthiazolo[5,4-b]pyridin-6-yl)-3-(2-methoxy-6-(2H-1,2,3-triazol-2-yl)-5-(trifluoromethyl)pyridin-3-yl)urea] were, in that order, 1 to 50 nM and 1 to 100 nM.
`Cc1nc2c(C3CC3)c(NC(=O)Nc3ccc(OC(F)F)c(Cl)c3)cnc2s1` [Compound 193, 1-(3-Chloro-4-(difluoromethoxy)phenyl)-3-(7-cyclopropyl-2-methylthiazolo[5,4-b]pyridin-6-yl)urea]: the IC50 on full length MALT1 enzyme lay within 51 to 100 nM.
Still for that read-out and setting: the same measure for `Cc1nc2c(C3CC3)c(NC(=O)Nc3cnc(OC(C)C)c(Cl)c3)cnc2s1` [Compound 6, 1-(5-Chloro-6-isopropoxypyridin-3-yl)-3-(7-cyclopropyl-2 methylthiazolo[5,4-b]pyridin-6-yl)urea]: 51 to 100 nM; for `COC(C)c1c(NC(=O)Nc2ccc(-n3nccn3)c(F)c2)cnc2sc(C)nc12` (single isomer, unassigned) [Compound 211, (S) or (R)-1-(3-Fluoro-4-(2H-1,2,3-triazol-2-yl)phenyl)-3-(7-(1-methoxyethyl)-2-methylthiazolo[5,4-b]pyridin-6-yl)urea]: 1 to 50 nM; for `Cc1nc2c(C3CC3)c(NC(=O)Nc3cncc(C#N)c3)cnc2s1` [Compound 10, 1-(5-Cyanopyridin-3-yl)-3-(7-cyclopropyl-2-methylthiazolo[5,4-b]pyridin-6-yl)urea]: 101 to 500 nM.
Same read-out and setting: the same measure for `COc1nc(-n2cccn2)c(Cl)cc1NC(=O)Nc1cnc2sc(C)nc2c1C(C)OC` (single isomer, unassigned) [Compound 209b, (S) or (R)-1-(5-Chloro-2-methoxy-6-(1H-pyrazol-1-yl)pyridin-3-yl)-3-(7-(1-methoxyethyl)-2-methylthiazolo[5,4-b]pyridin-6-yl)urea]: 1 to 50 nM.
As for `COc1ccc(NC(=O)Nc2cnc3sc(C)nc3c2-c2cccnc2F)cc1Cl` [Compound 17, 1-(3-Chloro-4-methoxyphenyl)-3-(7-(2-fluoropyridin-3-yl)-2-methylthiazolo[5,4-b]pyridin-6-yl)urea], the IC50 on full length MALT1 enzyme fell in the range of 101 to 500 nM.
